{
  "source": "patent US20250177351A1",
  "about": "“ISOINDOLINE COMPOSITIONS AND METHODS FOR TREATING NEURODEGENERATIVE DISEASE” (Cognition Therapeutics, Inc., priority 2022, published 2025)",
  "key": {"[1]": {"test": "Phase 1 multiple ascending dose (MAD) study: plasma pharmacokinetics", "format": "in vivo, human", "design": "CLss/F: unit not given here", "conditions": "for CLss/F / t1/2: MAD", "experimental": "A Phase 1, two-part single and multiple ascending dose study was conducted in 7 and 4 cohorts of healthy human subjects respectively. […] In Part B, subjects were administered 280, 560, and 840 mg once daily for 14 days (8:2 A:P per cohort). An elderly cohort, age 65-75, was dosed at 560 mg once daily for 14 days (7:2 A:P). […] Cognitive testing was performed in the healthy elderly cohort at baseline and at Day 14 of treatment.\nIn Part B, healthy young subjects in each cohort received the same dose once daily for 14 days after overnight fasting. Cohort dosing started at 280 mg, followed by 560 mg and 840 mg in subsequent cohorts. In each cohort, eight subjects received drug and two received placebo. A fourth cohort of healthy elderly subjects (≥65 years old) received a 560 mg dose vs. placebo daily for 14 days (seven active, two placebo).\nSubjects were dosed in the morning with 240 mL of water after an 8-hour fast, and remained in a semi-reclined position for 1 hour and fasting for 2 hours post-administration, except for the fed cohort in Part A. Subjects in each MAD cohort were confined to the clinical facility from check-in on Day 0 until the pharmacokinetic sample was collected on Day 16, 48 hours after administration of the last dose on Day 14. Subjects returned to the clinical facility for follow-up visits on Days 24 and 35.\nIn Part A, blood draws for assessment of PK parameters occurred pre-dose and at 15, 30, 45, 60, and 90 minutes post dose as well as at 2, 3, 4, 8, 12, 24, 36, and 48 hours post dose. […] In Part B, blood samples for plasma PK analysis were taken on Day 1 at pre-dose and at 2 hours post-dose, on Day 3 at pre-dose and at 15, 30 and 45 minutes and 1, 2, 3, 4, 8, 12 and 24 hours post-dose, on Days 4, 6, 8 and 10 at pre-dose and at 1.5 hours post-dose and following the final dose on Day 14 at pre-dose and 15, 30 and 45 minutes and 1, 2, 4, 8, 12, 24, 36 and 48 hours post-dose.\nThis was assessed by analysis of variance (ANOVA) of log-transformed Cmax, AUC0-24, AUC0-48, and/or AUC0-inf, using a model with factors for treatment (fed status or age [young vs. elderly] status) and subject within sequence. Treatment mean differences and 90% confidence intervals of the log transformed PK parameters were back-transformed, to present the geometric least squares means ratios and 90% confidence limits."}, "[2]": {"test": "Phase 1 SAD study: safety assessments", "format": "in vivo, human", "experimental": "Part A was a single ascending dose cohort study in which healthy, young subjects (less than 65 years old) received one dose of study drug in the morning after an overnight fast. Cohort dosing started at 10 mg and increased to 30 mg, 90 mg, 180 mg, 450 mg, and 1120 mg in subsequent cohorts. Six drug-treated and two placebo-treated subjects were randomized in each cohort. A seventh cohort of six subjects each received a single 90 mg dose of drug 30 min. after a meal. Following completion of all safety assessments and blood draws for PK analyses, subjects were discharged on Day 3.\nSafety variables, including incidence of adverse events (AEs), vital signs, clinical laboratory findings, 12-lead electrocardiographs (ECGs), physical examination, and affective and cognitive measures (Part B only), were summarized for all subjects who received study drug."}, "[3]": {"conditions": "MAD 560 mg, Day 14 (steady state)"}, "[4]": {"conditions": "age up to 64 years, 280 mg (n = 8), Day 14, mean"}, "[5]": {"conditions": "age up to 64 years, 560 mg (n = 8), Day 14, mean"}},
  "note": "Marks after values point to notes of the source that are not given here.",
  "data": [
    {"smiles": "CC(C)(C)Oc1cc(CCC(C)(C)N2Cc3ccc(S(C)(=O)=O)cc3C2)ccc1O", "note": "[CT1812]", "values": [
      {"measurement": "AUC0-24h, aged cohort vs subjects under 64 years (geometric least-squares mean)", "setting": "[1]; MAD 560 mg, Day 3", "result": "~1.34", "unit": "times"},
      {"measurement": "Cmax, aged cohort vs subjects under 64 years (geometric least-squares mean)", "setting": "[1]; MAD 560 mg, Day 3", "result": "approximately 1.7 times"},
      {"measurement": "AUC0-24h, aged cohort vs younger subjects", "setting": "[1]; [3]", "result": 1.5, "unit": "times"},
      {"measurement": "Cmax, aged cohort vs younger subjects", "setting": "[1]; [3]", "result": 1.6, "unit": "times"},
      {"measurement": "increase of Cmax and AUC with dose", "setting": "[1]; MAD 280 to 840 mg", "result": "slightly greater than dose proportionally"},
      {"measurement": "CLss/F", "setting": "[1]; age at least 65 years, 560 mg (n = 7), Day 14, mean", "result": "169^‡‡"},
      {"measurement": "t1/2", "setting": "[1]; age at least 65 years, 560 mg, Day 3 (n = 4), over max. 24 hours post dose", "result": "8.83^†† hr"},
      {"measurement": "CLss/F", "setting": "[1]; [4]", "result": 387},
      {"measurement": "t1/2", "setting": "[1]; [4]", "result": 12.0, "unit": "h"},
      {"measurement": "CLss/F", "setting": "[1]; [5]", "result": 296},
      {"measurement": "t1/2", "setting": "[1]; [5]", "result": 12.3, "unit": "h"},
      {"measurement": "CLss/F", "setting": "[1]; age up to 64 years, dose cell prints 560 mg (n = 7), Day 14, follows 840 mg Day 3", "result": "212^‡‡"},
      {"measurement": "t1/2", "setting": "[1]; age up to 64 years, dose cell prints 560 mg (n = 7), Day 14, follows 840 mg Day 3 (n = 6)", "result": "8.93^§ hr"},
      {"measurement": "accumulation in plasma", "setting": "[1]; over 14 days", "result": "minimal accumulation"},
      {"measurement": "ECG", "setting": "[2]; SAD", "result": "No ECG parameters or changes were assessed as clinically significant"},
      {"measurement": "clinical laboratory results", "setting": "[2]; SAD", "result": "no subjects with clinically significant laboratory results"},
      {"measurement": "Number of Subjects with Treatment-Emergent AE: All TEAEs", "setting": "[2]; SAD Total Active (n = 42)", "result": 18},
      {"measurement": "Number of Subjects with Treatment-Emergent AE: Headache", "setting": "[2]; SAD Total Active (n = 42)", "result": 6},
      {"measurement": "Number of Subjects with Treatment-Emergent AE: Nausea", "setting": "[2]; SAD Total Active (n = 42)", "result": 6},
      {"measurement": "Number of Subjects with Treatment-Emergent AE: All TEAEs", "setting": "[2]; SAD fasted 10 mg (n = 6)", "result": 2},
      {"measurement": "Number of Subjects with Treatment-Emergent AE: All TEAEs", "setting": "[2]; SAD fasted 30 mg (n = 6)", "result": 4},
      {"measurement": "Number of Subjects with Treatment-Emergent AE: Headache", "setting": "[2]; SAD fasted 30 mg (n = 6)", "result": 3},
      {"measurement": "Number of Subjects with Treatment-Emergent AE: Nausea", "setting": "[2]; SAD fasted 30 mg (n = 6)", "result": 1},
      {"measurement": "Number of Subjects with Treatment-Emergent AE: All TEAEs", "setting": "[2]; SAD fasted 180 mg (n = 6)", "result": 2},
      {"measurement": "Number of Subjects with Treatment-Emergent AE: All TEAEs", "setting": "[2]; SAD fasted 450 mg (n = 6)", "result": 4},
      {"measurement": "Number of Subjects with Treatment-Emergent AE: Headache", "setting": "[2]; SAD fasted 450 mg (n = 6)", "result": 1},
      {"measurement": "Number of Subjects with Treatment-Emergent AE: Nausea", "setting": "[2]; SAD fasted 450 mg (n = 6)", "result": 2},
      {"measurement": "Number of Subjects with Treatment-Emergent AE: All TEAEs", "setting": "[2]; SAD fasted 1120 mg (n = 6)", "result": 4},
      {"measurement": "Number of Subjects with Treatment-Emergent AE: Headache", "setting": "[2]; SAD fasted 1120 mg (n = 6)", "result": 1},
      {"measurement": "Number of Subjects with Treatment-Emergent AE: Nausea", "setting": "[2]; SAD fasted 1120 mg (n = 6)", "result": 3},
      {"measurement": "Number of Subjects with Treatment-Emergent AE: All TEAEs", "setting": "[2]; SAD fed 90 mg (n = 6)", "result": 2},
      {"measurement": "Number of Subjects with Treatment-Emergent AE: Headache", "setting": "[2]; SAD fed 90 mg (n = 6)", "result": 1},
      {"measurement": "deaths or serious adverse events", "setting": "[2]; SAD, 10 mg to 1120 mg", "result": "no deaths or other serious adverse events"},
      {"measurement": "tolerability", "setting": "[2]; single dose 10 mg to 1120 mg, healthy subjects", "result": "well tolerated"}
    ]}
  ]
}
